For 32 compounds, IC50 results are on record in patent US8299056B2 (Signal Pharmaceuticals, LLC, priority 2008, dated 2012).

The target of the first experiment is T1, Syk (Homo sapiens, UniProt P43405).
T1 construct: purchased Carna Biosciences
As to the kind of experiment: Syk HTRF assay. The note with it: IC50 activity level, read-out: Activity Level. The format is biochemical. As for the experimental part: Test compounds were prepared at a concentration of 1.5 mM in DMSO followed by 3-fold dilutions in Greiner […] polypropylene plates. A 1:4 dilution of compounds by 8 μL/well transfer from the polypropylene plates to 24 μL/well Assay Buffer in Costar 3710 384 well black plates was then performed. Kinases (13 μL/well) or Assay Buffer only (background controls; 50 mM HEPES pH 7.6, 1 mM DTT, 10 mM MgCl2, 0.01% Triton X100, 0.01% BSA and 0.1 mM EDTA) were added to Costar 3710 384-well black plates for the HTRF assays (Carna Biosciences) and compound was added from the 1:4 dilution plate. Syk start mix (87.5 μM ATP, 80 nM Substrate Peptide (American Peptide Company 332722) was added and the mixture was incubated at room temperature for 1 hour. Syk Stop Solution (120 mM EDTA in dilution buffer) was then added to the Syk HTRF assay plate and incubated at room temperature on a shaker for 2 minutes. Syk Antibody Mix (4.86 μg/mL DyLight 647 Streptavidin (Pierce 21824); 1 μg/mL Lance Eu-Anti-Phosphotyrosine (PerkinElmer AD0069)) was added to the Syk HTRF assay plate and the mixture was further incubated at room temperature for >4 h. Time resolved fluorescence was read in assay plates on a PerkinElmer EnVision. HTRF assays were performed using 320 nm excitation, 60 μs delay, 665 nm and 615 nm emission. Data was expressed by division of 665 nm by 615 nm emissions.
(In TR-FRET formats the signal depends on donor and acceptor labels being close together.)
In the case of `CNC(=O)c1ccc(Nc2nc3cccc(-c4ccc5nn[nH]c5c4)n3n2)cc1` [Example 432, 4-(5-(1H-benzo[d][1,2,3]triazol-6-yl)-[1,2,4]triazolo[1,5-a]pyridin-2-ylamino)-N-methylbenzamide], the IC50 was in the range of 0.005 to 250 nM.
On to `COCc1nc2ccc(-c3cccc4nc(Nc5ccc(C(F)(F)F)cc5)nn34)cc2[nH]1` [Example 401, 5-(2-(methoxymethyl)-1H-benzo[d]imidazol-6-yl)-N-(4-(trifluoromethyl)phenyl)-[1,2,4]triazolo[1,5-a]pyridin-2-amine], for which the IC50 is 0.005 to 250 nM.
For the compound `Cc1cc(Nc2nc3cccc(N[C@H]4CC[C@@H](O)CC4)n3n2)cc2c1CC(=O)N2C` [Example 556], the IC50 lay within 0.005 to 250 nM.
On the same count and under the same terms, as for `Cc1n[nH]c2cc(Nc3nc4cccc(CC(C)CO)n4n3)ccc12` (stereo in doubt) [Example 555, (S)-2-methyl-3-(2-(3-methyl-1H-indazol-6-ylamino)-[1,2,4]triazolo[1,5-a]pyridin-5-yl)propan-1-ol], the figure is 0.005 to 250 nM.
On the same count and under the same terms, for `Fc1ccc(Nc2nc3cccc(-c4ccc5cn[nH]c5c4)n3n2)cc1` [Example 436, N-(4-fluorophenyl)-5-(1H-indazol-6-yl)-[1,2,4]triazolo[1,5-a]pyridin-2-amine] the value was 0.005 to 250 nM; for `CC1(C)C(=O)Nc2cc(Nc3nc4cccc(CC5CCOC5)n4n3)ccc21` (single isomer, unassigned; enantiomer 2) [Example 558, 3,3-dimethyl-6-(5-((tetrahydrofuran-3-yl)methyl)-[1,2,4]triazolo[1,5-a]pyridin-2-ylamino)indolin-2-one (enantiomer 2)], 0.005 to 250 nM.

Still in this experiment, the particulars now being: activity levels A-D, read-out: Activity Level (IC50 in the Syk HTRF assay).
With `CC1CN(Cc2cccc3nc(Nc4ccc(C(F)(F)F)cc4)nn23)CC(=O)N1` (centres unmarked) [Example 282, 6-methyl-4-((2-(4-(trifluoromethyl)phenylamino)-[1,2,4]triazolo[1,5-a]pyridin-5-yl)methyl)piperazin-2-one], the IC50 fell in the range of 1000 to 10000 nM.
As for `NC(=O)c1ccc(Nc2nc3cccc(N[C@H]4CC[C@@H](O)CC4)n3n2)cc1F` [Example 347, cis-2-fluoro-4-(5-(4-hydroxycyclohexylamino)-[1,2,4]triazolo[1,5-a]pyridin-2-ylamino)benzamide], the IC50 lay in the range of 0.005 to 250 nM.
As to `CC(C)(O)[C@H]1CC[C@H](Nc2cccc3nc(Nc4ccc(C(F)(F)F)cc4)nn23)CC1` (stereo in doubt) [Example 397, trans-2-(4-(2-(4-(trifluoromethyl)phenylamino)-[1,2,4]triazolo[1,5-a]pyridin-5-ylamino)cyclohexyl)propan-2-ol], the IC50 was 1000 to 10000 nM.
As for `Cc1cc(Nc2nc3cccc(CN4CCNC(=O)C4)n3n2)ccc1F` [Example 228, 4-((2-(4-fluoro-3-methylphenylamino)-[1,2,4]triazolo[1,5-a]pyridin-5-yl)methyl)piperazin-2-one], the IC50 was 250 to 500 nM.
On the same count and under the same terms, as for `O[C@H]1CCC[C@H](Nc2cccc3nc(Nc4ccc(C(F)(F)F)cc4)nn23)C1` (single isomer, unassigned; enantiomer 2) [Example 226, trans-3-(2-(4-(trifluoromethyl)(phenylamino)-[1,2,4]triazolo[1,5-a]pyridin-5-ylamino)cyclohexanol (enantiomer 2)], the figure is 500 to 1000 nM.
For `OCC1CCN(Cc2cccc3nc(Nc4ccc(C(F)(F)F)cc4)nn23)CC1` [Example 274, (1-((2-(4-(trifluoromethyl)phenylamino)-[1,2,4]triazolo[1,5-a]pyridin-5-yl)methyl)piperidin-4-yl)methanol], the IC50 was 1000 to 10000 nM.
Consider `Cc1n[nH]c2cc(Nc3nc4cccc(CC5CCOCC5)n4n3)ccc12` [Example 199, N-(3-methyl-1H-indazol-6-yl)-5-((tetrahydro-2H-pyran-4-yl)methyl)-[1,2,4]triazolo[1,5-a]pyridin-2-amine], for which the IC50 is 0.005 to 250 nM.
Still for that read-out and setting: as for `Nc1n[nH]c2cc(Nc3nc4cccc(CC5CCC(O)CC5)n4n3)ccc12` (centres unmarked) [Example 208, 4-((2-(3-amino-1H-indazol-6-ylamino)-[1,2,4]triazolo[1,5-a]pyridin-5-yl)methyl)cyclohexanol], the figure is 0.005 to 250 nM.
On to `CC(C)Nc1cccc2nc(Nc3ccc(C(F)(F)F)cc3)nn12` [Example 330, N^5-isopropyl-N^2-(4-(trifluoromethyl)phenyl)-[1,2,4]triazolo[1,5-a]pyridin-2,5-diamine], for which the IC50 lay within 1000 to 10000 nM.
On the same count and under the same terms, as for `Cc1n[nH]c2cc(Nc3nc4cccc(N[C@H]5CC[C@@H](O)CC5)n4n3)ccc12` [Example 351, cis-4-(2-(3-methyl-1H-indazol-6-ylamino)-[1,2,4]triazolo[1,5-a]pyridin-5-ylamino)cyclohexanol], the figure is 0.005 to 250 nM.
On to `CN(C)c1ccc(Nc2nc3cccc(-c4ccc5nc(CO)[nH]c5c4)n3n2)cn1` [Example 298, (6-(2-(6-(dimethylamino)pyridin-3-ylamino)-[1,2,4]triazolo[1,5-a]pyridin-5-yl)-1H-benzo[d]imidazol-2-yl)methanol], for which the IC50 lay within 0.005 to 250 nM.
For `CC(C)(CO)Nc1cccc2nc(Nc3ccc(C(F)(F)F)cc3)nn12` [Example 358, 2-methyl-2-(2-(4-(trifluoromethyl)phenylamino)-[1,2,4]triazolo[1,5-a]pyridin-5-ylamino)propan-1-ol], the IC50 fell in the range of 1000 to 10000 nM.
The same measure, in the same setting: for `CC1(C)C(=O)Nc2cc(Nc3nc4cccc(N[C@H]5CC[C@@H](O)CC5)n4n3)ccc21` [Example 202, cis-6-(5-(4-hydroxycyclohexylamino)-[1,2,4]triazolo[1,5-a]pyridin-2-ylamino)-3,3-dimethylindolin-2-one] the value was 0.005 to 250 nM.
The same measure, in the same setting: as for `COc1cccc(Nc2nc3cccc(N[C@H]4CC[C@@H](O)CC4)n3n2)c1` [Example 338, cis-4-(2-(3-methoxyphenylamino)-[1,2,4]triazolo[1,5-a]pyridin-5-ylamino)cyclohexanol], the figure is 0.005 to 250 nM; as for `Cc1n[nH]c2cc(Nc3nc4cccc(CN5CCN(c6ccc7c(C)n[nH]c7c6)C(=O)C5)n4n3)ccc12` [Example 234, 1-(3-methyl-1H-indazol-6-yl)-4-((2-(3-methyl-1H-indazol-6-ylamino)-[1,2,4]triazolo[1,5-a]pyridin-5-yl)methyl)piperazin-2-one], 1000 to 10000 nM.
`C[C@H](CO)Nc1cccc2nc(Nc3ccc(C(F)(F)F)cc3)nn12` [Example 328, (R)-2-(2-(4-(trifluoromethyl)phenylamino)-[1,2,4]triazolo[1,5-a]pyridin-5-ylamino)propan-1-ol]: the IC50 is 1000 to 10000 nM.
Same read-out and setting: as for `OC[C@H]1CCN(c2cccc3nc(Nc4ccc(C(F)(F)F)cc4)nn23)C1` [Example 327, (S)-(1-(2-(4-(trifluoromethyl)phenylamino)-[1,2,4]triazolo[1,5-a]pyridin-5-yl)pyrrolidin-3-yl)methanol], the figure is 250 to 500 nM; as for `COc1ccc(Nc2nc3cccc(-c4ccc5nc(CO)[nH]c5c4)n3n2)cn1` [Example 280, (6-(2-(6-methoxypyridin-3-ylamino)-[1,2,4]triazolo[1,5-a]pyridin-5-yl)-1H-benzo[d]imidazol-2-yl)methanol], 250 to 500 nM; as for `O[C@@H]1CCC[C@H](Nc2cccc3nc(Nc4ccc(C(F)(F)F)cc4)nn23)C1` (single isomer, unassigned; enantiomer 1) [Example 223, cis-3-(2-(4-(trifluoromethyl)phenylamino)-[1,2,4]triazolo[1,5-a]pyridin-5-ylamino)cyclohexanol (enantiomer 1)], 1000 to 10000 nM.

The same experiment, now with this note: read-out: Activity Level (Syk HTRF assay IC50).
Consider `Nc1cc(Nc2nc3cccc(-c4ccccc4)n3n2)ccn1` [compound 40], for which the IC50 fell in the range of 500 to 1000 nM.
Take `O=C(O)c1ccc(Nc2nc3cccc(-c4cccc(O)c4)n3n2)cc1` [compound 25, 4-(5-(3-hydroxyphenyl)-[1,2,4]triazolo[1,5-a]pyridin-2-ylamino)benzoic acid]: the IC50 lay within 0.005 to 250 nM.
With `CN1CCC(NC(=O)c2ccc(Nc3nc4cccc(-c5cccc(O)c5)n4n3)cc2)CC1` [compound 34, 4-(5-(3-hydroxyphenyl)-[1,2,4]triazolo[1,5-a]pyridin-2-ylamino)-N-(1-methylpiperidin-4-yl)benzamide], the IC50 fell in the range of 0.005 to 250 nM.
In the case of `CNC(=O)c1ccc(Nc2nc3cccc(-c4ccccc4Cl)n3n2)cc1` [compound 22, 4-(5-(2-chlorophenyl)-[1,2,4]triazolo[1,5-a]pyridin-2-ylamino)-N-methylbenzamide], the IC50 was 1000 to 10000 nM.
On the same count and under the same terms, for `Cn1cnc2ccc(Nc3nc4cccc(-c5ccccc5)n4n3)cc21` [compound 47, N-(1-methyl-1H-benzo[d]imidazol-6-yl)-5-phenyl-[1,2,4]triazolo[1,5-a]pyridin-2-amine] the value was 0.005 to 250 nM.
Regarding `Nc1cccc(-c2cccc3nc(Nc4ccccc4)nn23)c1` [Example 87], the IC50 was in the range of 0.005 to 250 nM.
For `O=C1Cc2ccc(Nc3nc4cccc(N[C@H]5CC[C@@H](O)CC5)n4n3)cc2N1CCO` [Example 185, cis-6-(5-(4-hydroxycyclohexylamino)-[1,2,4]triazolo[1,5-a]pyridin-2-ylamino)-1-(2-hydroxyethyl)indolin-2-one], the IC50 fell in the range of 250 to 500 nM.
